pIC50: −log10 of the molar value.
Tested on: phosphorylation of Serine 473 in Akt
Experiment: In Vitro Phospho-Ser473 Akt Assay in MDA-MB-468 cells
Format: cell-based
Details: Homo sapiens, MDA-MB-468, read-out: IC50 values against mTOR, phospho-Ser473 Akt assay, MDA-MB-468 cells

| Compound | pIC50 |
| --- | --- |
| COc1ccc(-c2ccc3c(N4CCOC[C@@H]4C)nc(N4CCC(C)CC4)nc3n2)cc1CO [Example 18t] | > 7.00 |
| CCOC(=O)C1CCN(c2nc(N3CCOC[C@@H]3C)c3ccc(-c4ccc(OC)c(CO)c4)nc3n2)CC1 [Example 18u] | > 7.00 |
| COc1ccc(-c2ccc3c(N4CCOC[C@@H]4C)nc(N4CCC(C(N)=O)CC4)nc3n2)cc1CO [Example 18v] | > 7.00 |
| COc1ccc(C(=O)C2CCN(c3nc(N4CCOC[C@@H]4C)c4ccc(-c5ccc(OC)c(CO)c5)nc4n3)CC2)cc1 [Example 18w] | > 6.52 |
| COc1ccc(-c2ccc3c(N4CCOC[C@@H]4C)nc(N4CCC(CO)CC4)nc3n2)cc1CO [Example 18x] | > 7.00 |
| COc1ccc(-c2ccc3c(N4CCOC[C@@H]4C)nc(N4CCCC(CO)C4)nc3n2)cc1CO (stereo partly drawn) [Example 18y] | > 7.00 |
| COc1ccc(-c2ccc3c(N4CCOC[C@@H]4C)nc(-c4cccc(C=O)c4)nc3n2)cc1CO [Example 19b] | > 6.52 |
| COc1ccc(-c2ccc3c(N4CCOC[C@@H]4C)nc(-c4cccc(CO)c4)nc3n2)cc1CO [Example 19c] | > 6.52 |
| COc1ccc(-c2ccc3c(N4CCOC[C@@H]4C)nc(-c4cccnc4)nc3n2)cc1CO [Example 19j] | > 7.00 |
| COc1ccc(-c2ccc3c(N4CCOC[C@@H]4C)nc(-c4cccc(C(N)=O)c4)nc3n2)cc1CO [Example 19k] | > 6.52 |
| COc1ccc(-c2nc(N3CCOC[C@@H]3C)c3ccc(-c4cccc(CO)c4)nc3n2)cn1 [Example 19p] | > 7.00 |

Same assay, conditions: Homo sapiens, MDA-MB-468, read-out: IC50 values against mTOR, phospho-Ser473 Akt assay, MDA-MB-468 cells, upper bound

| Compound | pIC50 |
| --- | --- |
| COc1ccc(-c2ccc3c(N4CCOC[C@@H]4C)nc(N4CCC(N5CCCCC5)CC4)nc3n2)cc1CO [Example 18z] | > 6.00 |
| COc1ccc(-c2ccc3c(N4CCOC[C@@H]4C)nc(-c4cccc(CN)c4)nc3n2)cc1CO [Example 19e] | > 6.00 |
| COC(=O)c1cccc(-c2nc(N3CCOC[C@@H]3C)c3ccc(-c4ccc(OC)c(CO)c4)nc3n2)c1 [Example 19h] | > 6.00 |
| COc1ccc(-c2ccc3c(N4CCOC[C@@H]4C)nc(-c4cccc([N+](=O)[O-])c4)nc3n2)cc1CO [Example 19i] | > 6.00 |
| COCc1cccc(-c2nc(N3CCOC[C@@H]3C)c3ccc(-c4ccc(OC)c(CO)c4)nc3n2)c1 [Example 19l] | > 6.00 |
| COc1ccc(-c2ccc3c(N4CCOC[C@@H]4C)nc(-c4cccc(C(F)(F)F)c4)nc3n2)cc1CO [Example 19m] | > 6.00 |
| COc1ccc(-c2ccc3c(N4CCOC[C@@H]4C)nc(-c4cccc(C)c4)nc3n2)cc1CO [Example 19n] | > 6.00 |
| COc1cccc(-c2nc(N3CCOC[C@@H]3C)c3ccc(-c4ccc(OC)c(CO)c4)nc3n2)c1 [Example 19o] | > 6.00 |
| C[C@H]1COCCN1c1nc(-c2ccncc2)nc2nc(-c3cccc(CO)c3)ccc12 [Example 19q] | > 6.00 |
| COc1cncc(-c2nc(N3CCOC[C@@H]3C)c3ccc(-c4cccc(CO)c4)nc3n2)c1 [Example 19s] | > 6.00 |
| C[C@H]1COCCN1c1nc(-c2cccnc2F)nc2nc(-c3cccc(CO)c3)ccc12 [Example 19u] | > 6.00 |
| C[C@H]1COCCN1c1nc(-c2cnn(C)c2)nc2nc(-c3cccc(CO)c3)ccc12 [Example 19v] | > 6.00 |
| Cc1nn(C)c(C)c1-c1nc(N2CCOC[C@@H]2C)c2ccc(-c3cccc(CO)c3)nc2n1 [Example 19w] | > 6.00 |
